Results published in EP0361645B1, “Organic hydrazine derivatives for pharmaceutical use” (ROHM AND HAAS COMPANY, priority 1988, dated 1990).
Where two headings read alike, the source gives them in different places.

Biological target: T1, ecdysone receptor (Drosophila melanogaster, UniProt P34021)
T1 construct: endogenous in cells; host or cells: Drosophila Kr (Kc) cells, undiluted cytosolic extract
T1 sequence (P34021 1-878): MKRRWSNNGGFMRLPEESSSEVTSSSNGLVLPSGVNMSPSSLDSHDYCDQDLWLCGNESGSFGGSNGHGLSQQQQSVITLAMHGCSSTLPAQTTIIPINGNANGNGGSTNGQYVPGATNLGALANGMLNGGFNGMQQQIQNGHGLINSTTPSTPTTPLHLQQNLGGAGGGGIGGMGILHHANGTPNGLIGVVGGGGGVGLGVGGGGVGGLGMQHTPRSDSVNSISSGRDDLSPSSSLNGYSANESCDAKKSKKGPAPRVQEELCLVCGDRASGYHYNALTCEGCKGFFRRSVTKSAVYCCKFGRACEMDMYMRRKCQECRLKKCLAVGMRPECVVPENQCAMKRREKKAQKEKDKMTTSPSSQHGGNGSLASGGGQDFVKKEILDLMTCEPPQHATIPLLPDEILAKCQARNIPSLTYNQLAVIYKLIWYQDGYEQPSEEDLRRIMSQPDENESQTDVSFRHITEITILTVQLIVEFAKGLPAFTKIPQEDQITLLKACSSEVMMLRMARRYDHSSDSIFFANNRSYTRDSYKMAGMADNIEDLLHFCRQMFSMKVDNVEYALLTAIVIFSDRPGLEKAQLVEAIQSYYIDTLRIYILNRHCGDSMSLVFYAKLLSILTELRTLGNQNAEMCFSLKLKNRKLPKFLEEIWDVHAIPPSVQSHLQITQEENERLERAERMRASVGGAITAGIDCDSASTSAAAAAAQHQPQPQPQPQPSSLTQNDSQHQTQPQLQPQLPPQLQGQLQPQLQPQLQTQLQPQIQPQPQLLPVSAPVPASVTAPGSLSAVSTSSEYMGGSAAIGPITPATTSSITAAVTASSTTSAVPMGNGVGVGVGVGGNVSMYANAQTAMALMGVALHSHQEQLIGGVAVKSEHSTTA
T1 sequence (P20153 1-508 partner): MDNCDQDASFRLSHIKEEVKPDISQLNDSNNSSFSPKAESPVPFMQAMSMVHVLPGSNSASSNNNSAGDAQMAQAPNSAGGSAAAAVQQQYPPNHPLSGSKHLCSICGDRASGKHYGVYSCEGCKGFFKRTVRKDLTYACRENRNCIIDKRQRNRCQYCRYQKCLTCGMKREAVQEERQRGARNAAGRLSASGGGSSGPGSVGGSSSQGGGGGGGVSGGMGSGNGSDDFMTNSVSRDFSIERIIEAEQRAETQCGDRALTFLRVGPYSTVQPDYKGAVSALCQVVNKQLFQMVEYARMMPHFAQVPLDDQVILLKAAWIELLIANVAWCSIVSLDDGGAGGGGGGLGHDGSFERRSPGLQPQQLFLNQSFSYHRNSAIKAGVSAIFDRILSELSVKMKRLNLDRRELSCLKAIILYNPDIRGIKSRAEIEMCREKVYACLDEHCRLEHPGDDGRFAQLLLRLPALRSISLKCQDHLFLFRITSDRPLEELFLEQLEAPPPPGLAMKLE
Experiment: ^3H-ponasterone A binding to / displacement from Kr cell cytosolic receptor extracts
Description: The invention will now be further described by way of exemplification and by reference to the drawings in which; • Figure 1. Both 20-hydroxyecdysone and Example No. 3 induce process elaboration (A) and inhibition of cell proliferation (B) in Kr cells in a dose-dependent manner. Initial cell density was 2 X 10^6 cells/ml; after incubation of 1 ml aliquots of the cells with the compound for 48 hours the cells were triturated gently and the percentage of cells responding (with processes longer than approximately 17 um, see Cherbas et al. 189 Wilhelm Roux's Arch. 1 (1980)) and total cell density was determined by hemocytom- eter counting, relative to ethanol (1 ul)-treated controls. Determinations were in triplicate for each dose. […] Induction of acetylcholinesterase by varying concentrations of 20-hydroxyecdysone and Example No. 3. Kr cells at an initial density of 3 X 10^6 cells/ml (10 ml per sample) were incubated with the agonist for three days. After harvesting, by centrifugation at 3000 X g, the cell pellets were washed with Robb's Drosophila saline (18, 2 X 5 ml) at 4 ° C, then lysed by sonication in 1 ml of phosphate buffer (pH 7.4, I = 0.1 M) containing 0.5 M NaCI, 0.25 M EDTA and 0.5% TRITON? X-100. See Cherbas, 197 Science 275 (1977). Triton is a registered trademark of Rohm and Haas Company for a alkylaryl polyoxyethylene glycol surfactant. After centrifugation at 16,000 X g, the supernatants were assayed for acetylcholinesterase activity by an adaptation of the method of Ellman et al., 7 Biochem. Pharmacol. 88 (1961), by subtracting out any 412 nm absorbance observed in incubations in the presence of 2 X 10-5 eserine sulfate. Thus reaction mixtures contained 50 ul of enzyme extract, 20 ul eserine (blank tubes only) and 1.0 ml of 0.5 mM acetylthiocholine, 0.3 mM dithiobisnitrobenzoic acid in phosphate buffer (pH 7.4, I = 0.1 M). Incubations were at 25 ° C for two hours; reactions in active tubes were terminated by addition of eserine. Absorbance at 412 nm was then measured. Protein concentration in extracts was measured by the Biorad method. […] Scatchard plot of ^3H-ponasterone A binding to Kr cell cytosolic receptor extracts in the presence of differing concentrations of Example No. 3. Cytosolic extract preparation and ecdysteroid receptor assays were essentially as described in Sage, 111 Meth. in Enzymol. 458 (1985). Example No. 3 was added in 1 ul DMSO to 50 ul of radioligand in 10 mM Tris buffer (pH 7.2) and 50 ul of undiluted cytosol extract. After incubation overnight at 0.5 ° C, bound label was separated from free by addition of 300 ul 1% HCI-washed charcoal (Sigma) and 0.1% Dextran T70 (Pharmacia) in Tris buffer, centrifugation (13,000 X g, 3 min, 4 ° C) and liquid scintillation counting of a 300 ul aliquot of the supernatant in 15 ml Hydrofluor (National Diagnostics). Points are means of duplicate determinations. […] Relative ability of 20 hydroxyecdysone and Example No. 3 to displace ^3H-ponasterone A from cytosolic receptor extracts. Conditions were as in Figure 3 except that only 0.5 nM ponasterone A was used. • Points are means of duplicate determinations. For 20-hydroxyecdysone EC50 = 0.1 uM while for Example No. 3 EC50 = 3.0 uM. Control binding = 10 femtomoles ^3H-ponasterone A bound per mg cytosol protein. • Figure 4. Effects of 10 ppm Example No. 3 administered in artificial diet to newly ecdysed fourth instar (L4) M. sexta, monitoring (A)immunoreactive hemolymph ecdysteroid titers and (B)weight gain. Ecdysteroid titers were measured by a radioimmunoassay adapted from Warren et al., 40 Experientia 393 (1984) with Protein A-Staph. aureus suspension (Sigma) used as the reagent to separate bound from free ligand. The antiecdysone antiserum was formed by reaction of 20-hydroxyecdysone with carboxymethox- yamine resulting in the corresponding ecdysteroid 6-oxime acid. […] All samples were diluted appropriately in borate buffer pH 8.0 and assayed in duplicate. […]

SMILES	IC50 (0.5 nM ponasterone A (Figure 3B legend), read-out: EC50, displacement of ^3H-ponasterone A from cytosolic receptor extracts) [µM]	fold greater apparent affinity than Example No. 3 (ratio of IC50) [fold]	IC50 [µM]	mode of inhibition of ^3H-ponasterone A binding (Kd increases, Bmax remains the same)	fold lower apparent binding affinity than 20-hydroxyecdysone (Kr cell extracts) [fold]
CC(C)(O)CC[C@@H](O)[C@](C)(O)[C@H]1CC[C@@]2(O)C3=CC(=O)[C@@H]4C[C@@H](O)[C@@H](O)C[C@]4(C)[C@H]3CC[C@]12C [20-hydroxyecdysone, reference compound]	0.1	30	–	–	–
CC(C)(C)N(NC(=O)c1ccccc1)C(=O)c1ccccc1 [Example No. 3, N'-t-butyl-N,N'-dibenzoylhydrazine]	–	–	3	competitive mode of inhibition	30
